Measured values published in paper PMC10485906, “Development of a Dihydroquinoline–Pyrazoline GluN2C/2D-Selective Negative Allosteric Modulator of the N-Methyl-D-aspartate Receptor” (ACS Chemical Neuroscience, 2023).
“Also recorded” adds a separate entry of the source.

Experiments:
[1] = biological target: 42-nACh (Rattus norvegicus, UniProt P09483+P12390); assay: Off-target, oocytes, nicotinic acetylcholine 42; format: cell-based; conditions: 1 µM compound; 10 µM acetylcholine
Experimental: (§1) Analysis of Off-target Actions
(§2) Compound (S)-(-)-2i was tested at 1 µM for actions at glycine-activated GluN1/GluN3A (human GluN1-F484A,T518L/GluN3A referred to a GluN1-FA,TL/GluN3A) and rat GluN1-4a/GluN3B in the presence of 0.5 µM CGP-78608. cRNA injection ratios for GluN1/GluN3 were 1:2. Compound (S)-(-)- 2i was also tested for actions at AMPA (rat GluA1, rat GluA2, human GluA3-L531Y), kainate (rat GluK2), nicotinic acetylcholine (rat α7 and α4β2, cRNA ratio 1:1), GABAA (rat α1β2γ2S, cRNA ratio 1:1:1), GABAC (rat ρ1), glycine (rat α1), and purinergic (human P2X) receptors expressed in Xenopus oocytes. cRNA encoding the receptor subunits was synthesized from linear template cDNA using the mMessage mMachine kit (Ambion). Oocytes were injected with 1-5 ng cRNA in a 50 nL volume and incubated in Barth's solution at 15°C for 2-5 days prior to recording. GluK2-expressing oocyte were incubated in 1 mg/ml (10 µM) concanavalin-A for 10 min prior to recording. The cDNAs encoding GABAC and glycine subunits were provided by Dr. D. Weiss (University of Texas Health Science Center at San Antonio). cDNAs encoding nicotinic acetylcholine receptor subunits were provided by Drs. […]
(§3) GABA. […] Responses in presence of test compound were expressed as a percent of control. […]

[2] = system: hP2x; assay: Off-target, oocytes, purinergic receptor; format: cell-based, human; conditions: 1 µM compound; 9 µM ATP
Experimental: as §1, §2, §3

[3] = system: AMPA, kainate, GluN1/GluN3, GABA, glycine, nicotinic, purinergic P2X receptors; assay: Off-target actions, summary in words; format: cell-based; conditions: 1 μM
Experimental: By contrast, the other enantiomer (R)-(+)-2i had lower potency and produced shallow, incomplete inhibition (Figure S11).
as §1, §2, §3

[4] = biological target: T1, α1-Glycine (Rattus norvegicus, UniProt P07727); assay: Off-target, oocytes, glycine receptor; format: cell-based; conditions: 1 µM compound; 100 µM glycine
T1 construct: expressed in transfected cells; host or cells: Xenopus oocytes (cRNA injection)
Experimental: as §1, §2, §3

[5] = biological target: T2, GluA2-R607Q (Rattus norvegicus, UniProt P19491); assay: Off-target, oocytes, GluA2; format: cell-based; conditions: 1 µM compound; 100 µM glutamate
T2 construct: expressed in transfected cells; host or cells: Xenopus oocytes (cRNA injection)
Experimental: as §1, §2, §3

[6] = biological target: GluN1-4a/GluN3B (Rattus norvegicus, UniProt P35439+Q8VHN2); assay: Off-target, oocytes, GluN1-4a/GluN3B; format: cell-based; conditions: 1 µM compound; 100 µM glycine
Experimental: as §1, §2, §3

[7] = biological target: T3, GluA1 (Rattus norvegicus, UniProt P19490); assay: Off-target, oocytes, GluA1; format: cell-based; conditions: 1 µM compound; 100 µM glutamate
T3 construct: expressed in transfected cells; host or cells: Xenopus oocytes (cRNA injection)
Experimental: as §1, §2, §3

[8] = biological target: hGluN1-FA,TL/hGluN3A (Homo sapiens, UniProt Q05586+Q8TCU5, F484A/T518L); assay: Off-target, oocytes, GluN1/GluN3A; format: cell-based; conditions: 1 µM compound; 100 µM glycine
Experimental: as §1, §2, §3

[9] = biological target: T4, -GABAC (Rattus norvegicus, UniProt P50572); assay: Off-target, oocytes, GABAC; format: cell-based; conditions: 1 µM compound; 100 µM GABA
T4 construct: expressed in transfected cells; host or cells: Xenopus oocytes (cRNA injection)
Experimental: as §1, §2, §3

[10] = biological target: α7-nACh (Rattus norvegicus, UniProt Q05941); assay: Off-target, oocytes, nicotinic acetylcholine α7; format: cell-based; conditions: 1 µM compound; 300 µM acetylcholine
Experimental: as §1, §2, §3

[11] = biological target: T5, 1b22-GABA (Rattus norvegicus, UniProt P18508+P62813+P63138); assay: Off-target, oocytes, GABAA; format: cell-based; conditions: 1 µM compound; 100 µM GABA
T5 construct: expressed in transfected cells; host or cells: Xenopus oocytes (cRNA injection, 1:1:1)
Experimental: as §1, §2, §3

[12] = biological target: T6, GluN1/GluN2B (Rattus norvegicus, UniProt Q00960); parameters: method as in PMID 23909910; conditions: reproduced for comparison; cited from earlier work
T6 construct: GluN2B (NM_012574.1), GluN2C (NM_012575.3), and GluN2D (NM_022797.2) were provided by; expressed in transfected cells; host or cells: Xenopus laevis oocytes (cRNA injection)

[13] = biological target: T7, GluN1/GluN2A (Rattus norvegicus, UniProt Q00959); parameters: method as in PMID 23909910; conditions: reproduced for comparison; cited from earlier work
T7 construct: expressed in transfected cells; host or cells: Xenopus laevis oocytes (cRNA injection)
T7 sequence (Q00959 23-1464, other chains not shown): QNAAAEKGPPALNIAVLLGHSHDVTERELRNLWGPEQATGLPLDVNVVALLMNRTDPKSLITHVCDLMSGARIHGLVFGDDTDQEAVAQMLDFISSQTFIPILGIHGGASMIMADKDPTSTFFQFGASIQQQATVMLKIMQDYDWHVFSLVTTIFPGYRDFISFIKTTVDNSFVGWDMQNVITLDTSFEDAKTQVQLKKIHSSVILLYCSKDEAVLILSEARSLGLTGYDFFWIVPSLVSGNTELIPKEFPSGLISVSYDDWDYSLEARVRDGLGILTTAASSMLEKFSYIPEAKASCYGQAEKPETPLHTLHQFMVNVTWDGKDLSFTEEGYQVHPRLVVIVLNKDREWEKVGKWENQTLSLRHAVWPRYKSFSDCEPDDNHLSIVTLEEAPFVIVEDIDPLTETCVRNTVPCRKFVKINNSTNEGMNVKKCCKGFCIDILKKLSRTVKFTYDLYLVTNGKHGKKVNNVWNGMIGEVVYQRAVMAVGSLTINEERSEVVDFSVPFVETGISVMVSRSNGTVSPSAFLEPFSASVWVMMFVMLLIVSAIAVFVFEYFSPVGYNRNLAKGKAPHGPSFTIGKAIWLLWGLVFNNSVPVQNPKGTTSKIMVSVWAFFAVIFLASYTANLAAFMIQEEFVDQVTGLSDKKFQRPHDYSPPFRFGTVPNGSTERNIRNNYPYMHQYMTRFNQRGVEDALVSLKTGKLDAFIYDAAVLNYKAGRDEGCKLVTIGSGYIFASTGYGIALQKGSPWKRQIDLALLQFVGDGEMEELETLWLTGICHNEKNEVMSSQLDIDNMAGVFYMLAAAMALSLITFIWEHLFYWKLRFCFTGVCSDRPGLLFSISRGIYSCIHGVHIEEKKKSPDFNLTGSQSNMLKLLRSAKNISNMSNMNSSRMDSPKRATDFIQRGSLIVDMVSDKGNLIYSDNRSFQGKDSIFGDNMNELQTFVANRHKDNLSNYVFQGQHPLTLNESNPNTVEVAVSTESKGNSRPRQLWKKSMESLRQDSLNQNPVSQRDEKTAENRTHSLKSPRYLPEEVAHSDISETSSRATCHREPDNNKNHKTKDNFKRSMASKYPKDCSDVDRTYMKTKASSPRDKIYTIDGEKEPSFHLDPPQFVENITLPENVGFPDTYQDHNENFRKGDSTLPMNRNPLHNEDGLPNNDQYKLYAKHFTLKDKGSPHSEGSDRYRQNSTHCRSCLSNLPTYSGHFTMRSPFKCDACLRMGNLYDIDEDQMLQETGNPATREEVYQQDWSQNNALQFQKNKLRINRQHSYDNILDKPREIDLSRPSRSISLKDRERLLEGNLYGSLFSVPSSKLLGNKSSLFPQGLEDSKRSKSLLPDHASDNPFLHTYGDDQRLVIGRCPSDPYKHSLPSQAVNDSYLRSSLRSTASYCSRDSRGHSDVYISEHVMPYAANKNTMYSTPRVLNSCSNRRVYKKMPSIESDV

T5 sequence (P62813 28-455): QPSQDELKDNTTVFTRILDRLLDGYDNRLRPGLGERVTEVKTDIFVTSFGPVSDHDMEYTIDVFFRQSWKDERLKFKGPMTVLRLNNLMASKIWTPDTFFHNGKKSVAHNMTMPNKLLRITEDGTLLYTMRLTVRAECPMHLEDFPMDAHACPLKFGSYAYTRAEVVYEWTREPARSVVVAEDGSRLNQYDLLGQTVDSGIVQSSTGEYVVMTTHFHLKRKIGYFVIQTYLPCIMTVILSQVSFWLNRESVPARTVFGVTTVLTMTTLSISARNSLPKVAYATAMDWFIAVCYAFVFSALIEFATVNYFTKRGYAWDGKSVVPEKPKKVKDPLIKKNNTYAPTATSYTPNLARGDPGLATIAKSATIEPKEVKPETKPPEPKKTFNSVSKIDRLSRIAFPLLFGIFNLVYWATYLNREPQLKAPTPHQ
T5 sequence (P63138 25-474 limits assumed): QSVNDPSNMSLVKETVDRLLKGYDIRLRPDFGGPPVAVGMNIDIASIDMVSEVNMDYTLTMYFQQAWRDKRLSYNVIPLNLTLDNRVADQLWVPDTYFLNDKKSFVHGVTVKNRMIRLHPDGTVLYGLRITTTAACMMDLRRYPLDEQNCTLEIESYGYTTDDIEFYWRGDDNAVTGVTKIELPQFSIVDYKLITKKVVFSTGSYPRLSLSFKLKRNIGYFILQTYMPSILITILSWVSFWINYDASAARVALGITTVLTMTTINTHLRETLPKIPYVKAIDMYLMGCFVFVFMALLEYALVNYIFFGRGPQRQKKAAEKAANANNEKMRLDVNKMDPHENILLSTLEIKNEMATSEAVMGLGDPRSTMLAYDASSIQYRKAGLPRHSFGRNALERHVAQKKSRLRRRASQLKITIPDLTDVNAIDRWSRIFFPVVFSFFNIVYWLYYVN
T5 sequence (P18508 39-466): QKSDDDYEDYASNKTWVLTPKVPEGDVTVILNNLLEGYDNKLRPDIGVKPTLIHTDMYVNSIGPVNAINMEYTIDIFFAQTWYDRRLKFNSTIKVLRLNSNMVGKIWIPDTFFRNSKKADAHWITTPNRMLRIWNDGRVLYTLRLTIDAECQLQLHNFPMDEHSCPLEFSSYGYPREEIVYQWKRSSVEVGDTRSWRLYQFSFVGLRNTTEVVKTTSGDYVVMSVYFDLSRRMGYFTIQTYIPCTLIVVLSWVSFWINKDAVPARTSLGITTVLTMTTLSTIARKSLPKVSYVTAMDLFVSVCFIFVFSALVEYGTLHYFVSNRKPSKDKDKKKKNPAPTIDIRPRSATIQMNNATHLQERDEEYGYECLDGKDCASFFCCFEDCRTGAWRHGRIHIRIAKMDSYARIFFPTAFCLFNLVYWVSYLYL
Chain of GluN1-4a/GluN3B (Q8VHN2 25-1002, other chains not shown): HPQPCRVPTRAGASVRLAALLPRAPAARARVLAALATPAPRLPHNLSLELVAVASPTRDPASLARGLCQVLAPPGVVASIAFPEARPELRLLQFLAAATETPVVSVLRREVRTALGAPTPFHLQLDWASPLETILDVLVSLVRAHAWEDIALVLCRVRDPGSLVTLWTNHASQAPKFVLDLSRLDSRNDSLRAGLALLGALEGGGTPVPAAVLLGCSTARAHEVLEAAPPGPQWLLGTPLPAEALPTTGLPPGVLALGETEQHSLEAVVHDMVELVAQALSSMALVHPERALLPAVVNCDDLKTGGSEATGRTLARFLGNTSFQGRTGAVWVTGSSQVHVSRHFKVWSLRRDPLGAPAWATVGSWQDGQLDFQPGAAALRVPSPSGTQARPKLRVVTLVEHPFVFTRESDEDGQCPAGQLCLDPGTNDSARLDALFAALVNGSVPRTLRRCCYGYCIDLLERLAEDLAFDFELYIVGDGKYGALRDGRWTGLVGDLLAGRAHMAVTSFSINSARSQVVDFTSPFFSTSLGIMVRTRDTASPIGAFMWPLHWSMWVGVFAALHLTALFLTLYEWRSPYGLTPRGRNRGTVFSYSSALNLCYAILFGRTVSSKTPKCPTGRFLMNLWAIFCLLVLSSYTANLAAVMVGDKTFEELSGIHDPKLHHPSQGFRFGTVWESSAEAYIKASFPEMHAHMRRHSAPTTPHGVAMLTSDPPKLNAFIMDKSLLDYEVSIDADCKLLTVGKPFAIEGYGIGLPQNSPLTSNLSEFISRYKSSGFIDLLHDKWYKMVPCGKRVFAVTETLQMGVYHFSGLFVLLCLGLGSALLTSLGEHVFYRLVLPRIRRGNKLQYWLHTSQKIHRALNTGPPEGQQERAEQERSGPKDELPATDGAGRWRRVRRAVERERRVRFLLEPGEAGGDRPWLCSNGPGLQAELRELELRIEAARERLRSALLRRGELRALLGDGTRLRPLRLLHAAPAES
Chain of α7-nACh (Q05941 23-502): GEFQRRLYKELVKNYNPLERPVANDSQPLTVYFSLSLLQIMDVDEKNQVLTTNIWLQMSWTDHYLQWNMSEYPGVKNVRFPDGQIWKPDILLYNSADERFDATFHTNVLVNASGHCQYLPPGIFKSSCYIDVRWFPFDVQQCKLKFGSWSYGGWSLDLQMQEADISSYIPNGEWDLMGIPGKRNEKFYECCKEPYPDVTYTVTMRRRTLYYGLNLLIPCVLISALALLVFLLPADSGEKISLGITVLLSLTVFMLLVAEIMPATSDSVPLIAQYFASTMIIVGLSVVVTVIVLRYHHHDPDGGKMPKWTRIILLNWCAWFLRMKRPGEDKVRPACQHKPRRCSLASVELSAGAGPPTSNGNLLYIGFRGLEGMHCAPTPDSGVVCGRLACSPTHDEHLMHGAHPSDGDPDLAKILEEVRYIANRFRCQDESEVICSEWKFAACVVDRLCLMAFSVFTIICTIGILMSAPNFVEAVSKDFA
T1 sequence (P07727 29-457): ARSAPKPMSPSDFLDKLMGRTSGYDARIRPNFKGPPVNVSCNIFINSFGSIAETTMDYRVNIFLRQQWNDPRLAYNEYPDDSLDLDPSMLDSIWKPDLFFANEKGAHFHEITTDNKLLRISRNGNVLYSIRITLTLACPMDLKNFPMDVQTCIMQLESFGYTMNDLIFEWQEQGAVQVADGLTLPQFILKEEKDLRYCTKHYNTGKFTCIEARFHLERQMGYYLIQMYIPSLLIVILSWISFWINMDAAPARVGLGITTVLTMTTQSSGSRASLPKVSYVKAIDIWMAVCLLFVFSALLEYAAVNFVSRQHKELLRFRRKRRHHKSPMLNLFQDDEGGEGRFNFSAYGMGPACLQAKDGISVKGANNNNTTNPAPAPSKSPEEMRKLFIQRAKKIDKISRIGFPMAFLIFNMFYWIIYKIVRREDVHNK

Compound | % control 42-nACh [1] [%] | % control hP2x [2] [%] | off-target actions [3] | % control α1-Glycine [4] [%] | % control GluA2-R607Q [5] [%] | % control GluN1-4a/GluN3B [6] [%] | % control GluA1 [7] [%] | % control hGluN1-FA,TL/hGluN3A [8] [%] | % control -GABAC [9] [%] | % control α7-nACh [10] [%] | % control 1b22-GABA [11] [%] | I 30 μM / I control GluN2B [12] | I 30 μM / I control GluN2A [13]
O=C(O)CC(F)(F)C(=O)N1N=C(c2c(-c3ccc(Cl)cc3)c3ccccc3[nH]c2=O)C[C@H]1c1ccc(Cl)cc1 [(S)-(−)-2i] | 91 ± 2.1 | 108 ± 0.53 | no effects; also recorded: no activity | 103 ± 2.4 | 98 ± 0.85 | 97 ± 1.0 | 100 ± 2.0 | 95 ± 2.3 | 96 ± 1.2 | 105 ± 13.5 | 85 ± 2.0 |  | 
O=C(O)CCC(=O)N1N=C(c2c(-c3ccc(Cl)cc3)c3ccccc3[nH]c2=O)CC1c1ccc(Cl)cc1 (stereo not shown) [2a] |  |  |  |  |  |  |  |  |  |  |  | 44 ± 1.6 (2,8) % | 37 ± 4.6 (2,10) %
